This assay has as its target Btk (Homo sapiens (Human), UniProt Q06187). The assay can be described thus: Bruton's Tyrosine Kinase (Btk) inhibition assay (FRET BTK). The assay is classed as biochemical.

Chain of Btk (Q06187 whole entry): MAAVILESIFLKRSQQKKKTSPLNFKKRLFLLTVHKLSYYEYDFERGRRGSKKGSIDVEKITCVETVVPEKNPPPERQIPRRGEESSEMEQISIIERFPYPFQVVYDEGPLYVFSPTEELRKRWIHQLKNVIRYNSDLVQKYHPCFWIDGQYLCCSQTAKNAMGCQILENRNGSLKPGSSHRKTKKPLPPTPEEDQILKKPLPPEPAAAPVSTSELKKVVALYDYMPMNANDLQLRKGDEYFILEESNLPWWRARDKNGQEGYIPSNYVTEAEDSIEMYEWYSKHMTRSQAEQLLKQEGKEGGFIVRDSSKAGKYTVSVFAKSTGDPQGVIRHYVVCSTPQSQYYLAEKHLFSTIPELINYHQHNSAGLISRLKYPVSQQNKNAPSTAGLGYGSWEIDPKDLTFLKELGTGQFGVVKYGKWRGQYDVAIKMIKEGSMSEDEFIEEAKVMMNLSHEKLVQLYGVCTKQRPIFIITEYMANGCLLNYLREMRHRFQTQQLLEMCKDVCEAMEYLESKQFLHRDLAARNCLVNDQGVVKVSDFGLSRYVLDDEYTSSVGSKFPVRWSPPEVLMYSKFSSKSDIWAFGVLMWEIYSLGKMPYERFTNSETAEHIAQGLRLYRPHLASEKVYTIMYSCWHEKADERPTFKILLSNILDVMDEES

The IC50 is the midpoint of a concentration-inhibition curve. Read a low IC50 as greater potency. In the case of `CN(C)CCNc1ccc2c(C(N)=O)cn(-c3cccc(-n4ncc5cc(C(C)(C)C)cc(F)c5c4=O)c3CO)c2n1` [Compound I-51, 1-[3-(6-tert-Butyl-8-fluoro-1-oxo-1H-phthalazin-2-yl)-2-hydroxymethyl-phenyl]-6-(2-dimethylamino-ethylamino)-1H-pyrrolo[2,3-b]pyridine-3-carboxylic acid amide], inhibition was half-maximal at 3560 nM (IC50).
The same measure for `CC(C)(C)c1cc(F)c2c(=O)n(-c3cccc(-n4cc(C(N)=O)c(Nc5ccc(Cl)cn5)n4)c3CO)ncc2c1` [Compound I-23, 1-[3-(6-tert-Butyl-8-fluoro-1-oxo-1H-phthalazin-2-yl)-2-hydroxymethyl-phenyl]-3-(5-chloro-pyridin-2-ylamino)-1H-pyrazole-4-carboxylic acid amide]: 0.29 nM; for `CC(C)(C)c1cc(F)c2c(=O)n(-c3cccc(-n4ccc(C(N)=O)n4)c3CO)ncc2c1` [Compound I-40, 1-[3-(6-tert-Butyl-8-fluoro-1-oxo-1H-phthalazin-2-yl)-2-hydroxymethyl-phenyl]-1H-pyrazole-3-carboxylic acid amide]: 333 nM; for `CN1CCN(c2ccc3c(C(N)=O)cn(-c4cccc(-n5ncc6cc(C(C)(C)C)cc(F)c6c5=O)c4CO)c3n2)CC1` [Compound I-43, 1-[3-(6-tert-Butyl-8-fluoro-1-oxo-1H-phthalazin-2-yl)-2-hydroxymethyl-phenyl]-6-(4-methyl-piperazin-1-yl)-1H-pyrrolo[2,3-b]pyridine-3-carboxylic acid amide]: 2.83 nM.
The same measure for `Cc1cc(Nc2nn(-c3cccc(-n4ncc5cc(C(C)(C)C)cc(F)c5c4=O)c3CO)cc2C(N)=O)nn1C` [Compound I-31, 1-[3-(6-tert-Butyl-8-fluoro-1-oxo-1H-phthalazin-2-yl)-2-hydroxymethyl-phenyl]-3-(1,5-dimethyl-1H-pyrazol-3-ylamino)-1H-pyrazole-4-carboxylic acid amide]: 0.29 nM.
As to `CC(C)(C)c1cc(F)c2c(=O)n(-c3cccc(-n4cc(C(N)=O)c5cncnc54)c3CO)ncc2c1` [Compound I-42, 7-[3-(6-tert-Butyl-8-fluoro-1-oxo-1H-phthalazin-2-yl)-2-hydroxymethyl-phenyl]-7H-pyrrolo[2,3-d]pyrimidine-5-carboxylic acid amide], half-maximal inhibition (IC50) was put at 7.32 nM.
The same measure for `CC(C)(C)c1cc(F)c2c(=O)n(-c3cccc(-n4cc(C(N)=O)c5ccc(Br)nc54)c3CO)ncc2c1` [Compound I-48, 6-Bromo-1-[3-(6-tert-butyl-8-fluoro-1-oxo-1H-phthalazin-2-yl)-2-hydroxymethyl-phenyl]-1H-pyrrolo[2,3-b]pyridine-3-carboxylic acid amide]: 7.74 nM; for `Cn1cc(-c2cccc(-n3ccc4cc(C5CC5)cc(F)c4c3=O)c2CO)cc1C(N)=O` [Compound I-13, 4-[3-(6-Cyclopropyl-8-fluoro-1-oxo-1H-isoquinolin-2-yl)-2-hydroxymethyl-phenyl]-1-methyl-1H-pyrrole-2-carboxylic acid amide]: 39.4 nM.
With `CC(C)(C)c1cc(F)c2c(=O)n(-c3cccc(-n4cc(C(N)=O)c(Nc5ccccn5)n4)c3CO)ncc2c1` [Compound I-26, 1-[3-(6-tert-Butyl-8-fluoro-1-oxo-1H-phthalazin-2-yl)-2-hydroxymethyl-phenyl]-3-(pyridin-2-ylamino)-1H-pyrazole-4-carboxylic acid amide], the concentration for half-maximal inhibition (IC50) was determined as 0.36 nM.
The same measure for `CC(C)(C)c1cc(F)c2c(=O)n(-c3cccc(-n4cc(C(N)=O)c5ccc(N6CCOCC6)nc54)c3CO)ncc2c1` [Compound I-44, 1-[3-(6-tert-Butyl-8-fluoro-1-oxo-1H-phthalazin-2-yl)-2-hydroxymethyl-phenyl]-6-morpholin-4-yl-1H-pyrrolo[2,3-b]pyridine-3-carboxylic acid amide]: 10.3 nM.
